pEC50: −log10 of the molar value. Where “and” joins values, the source holds several entries; their conditions need not be identical. Equal values may be shown once. Read-outs that look alike come from different tables or passages of the source.
Experiments:
Format in all cases: cell-based
[1] = target: T1, THIK-1 R92A (Homo sapiens, UniProt Q9HB14, R92A); assay: Inside-out excised patch recordings, oocytes, THIK-1 R92A mutant (lipid activation); conditions: for pEC50: Linoleic acid EC50, THIK-1 R92A; for Fold activation with 30.0 µM linoleic acid: THIK-1 R92A
T1 construct: expressed in transfected cells; host or cells: Xenopus oocytes (mRNA injection)
T1 sequence (Q9HB14 1-408 R92A): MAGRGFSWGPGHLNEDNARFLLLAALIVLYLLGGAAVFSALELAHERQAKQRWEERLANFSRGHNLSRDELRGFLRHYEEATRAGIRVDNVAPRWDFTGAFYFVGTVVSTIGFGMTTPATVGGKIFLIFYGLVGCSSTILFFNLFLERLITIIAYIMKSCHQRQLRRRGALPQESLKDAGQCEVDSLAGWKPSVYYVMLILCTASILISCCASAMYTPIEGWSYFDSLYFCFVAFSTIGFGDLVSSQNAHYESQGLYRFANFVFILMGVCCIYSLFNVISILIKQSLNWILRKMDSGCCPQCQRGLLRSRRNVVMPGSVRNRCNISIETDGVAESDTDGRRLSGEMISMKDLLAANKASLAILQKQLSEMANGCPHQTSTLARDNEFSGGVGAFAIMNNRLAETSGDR
Source text: Human K2P13.1 THIK-1 (GenBank accession number: NM_022054) and human K2P12.1 THIK-2 (NM_022055.1) were used in this study. For functional expression studies, the respective K^+ channel subtype coding sequences were subcloned into the oocyte expression vector pSGEM or the dual-purpose expression vector pFAW[41] and verified by sequencing. All mutant channels were obtained by site-directed mutagenesis and verified by sequencing. To increase surface expression and macroscopic currents, measurements of THIK-2 channels used a mutated ER retention motif, (R11A R12A R14A R15A R16A; THIK-2*)[20]. Vector DNA was linearized with NheI or MluI, and mRNA was synthesized in vitro using the SP6 or T7 AmpliCap Max High Yield Message Maker Kit (Cellscript, USA) or HiScribe T7 ARCA mRNA Kit (New England Biolabs).
Two-electrode voltage–clamp (TEVC) studies were performed in Xenopus oocytes. All animal use conformed to the Guide for the Care and Use of Laboratory Animals (NIH Publication 85–23), and all experiments using Xenopus toads were approved by the local ethics panels. Oocytes were stored at 17 °C in ND96 recording solution composed of (in mM): 96 NaCl, 2 KCl, 1.8 CaCl2, 1 MgCl2, 5 HEPES (pH 7.5 adjusted with NaOH and HCl), supplemented with Na-pyruvate (275 mg L^–1), theophylline (90 mg L^–1) and gentamicin (50 mg L^–1). Oocytes were injected with 1 ng mRNA for WT or mutant channels, and were incubated for 24–48 h at 17 °C. Two-electrode voltage clamp recordings were then performed as previously described[42],[43]. For macroscopic patch–clamp measurements, oocytes were obtained as described above incubated at 17 °C in a solution containing (mM): 54 NaCl, 30 KCl, 2.4 NaHCO3, 0.82 MgSO4 ×7 H2O, 0.41 CaCl2, 0.33 Ca(NO3)2 ×4 H2O and 7.5 TRIS (pH 7.4 adjusted with NaOH and HCl) for 1–4 days before use. Excised patch recordings in inside-out configuration conditions were performed at room temperature. Patch pipettes were made from thick-walled borosilicate glass GB 200TF-8P (Science Products), had resistances of 0.2–0.5 MΩ (tip diameter, 10–25 µm) and filled with a pipette solution (in mM): 120 KCl, 10 HEPES and 3.6 CaCl2 (pH 7.4 adjusted with KOH and HCl). Intracellular bath solutions and compounds were applied to the cytoplasmic side of excised patches for the various K^+ channels through a gravity flow multi-barrel pipette system. The intracellular solution had the following composition (in mM): 120 KCl, 10 HEPES, 2 EGTA and 1 pyrophosphate (pH adjusted with KOH and HCl). Currents were recorded with an EPC10 amplifier (HEKA Electronics) and sampled at 10 kHz or higher, with filtering set to 3 kHz (–3 dB) or higher, as appropriate for sampling rate. For measurements of GPCR activation, whole-cell currents were recorded for THIK-1 in transiently transfected HEK-293 cells. Cells were stimulated by a ramp protocol between −100 and +60 mV (holding potential, −80 mV). The pipette solution was composed of (in mM): 140 KCl, 2 MgCl2, 1 CaCl2, 2.5 EGTA and 10 HEPES (pH 7.3 adjusted with KOH and HCl). The extracellular bath solution had the following composition (in mM): 135 NaCl, 5 KCl, 2 MgCl2, 2 CaCl2, 10 glucose and 10 HEPES pH (pH 7.3 adjusted with NaOH and HCl). Oxotremorine M (Oxo-M) was added to extracellular bath solution to obtain the final concentration. Single-channel currents were recorded with an Axopatch 200B amplifier through a Digidata 1440A digitizer (Molecular Devices). Data were filtered at 2 kHz and recorded at a 200-kHz sampling rate with the program Clampex (Molecular Devices). Pipette solution and bath solution for cell-attached recordings contained (in mM): 140 KCl, 2 MgCl2, 1 CaCl2 and 10 HEPES (pH 7.4 adjusted with KOH and HCl). For inside-out recordings, the bath solution contained (in mM): 140 KCl, 2 MgCl2, 1 CaCl2 and 10 HEPES (pH 7.2 adjusted with KOH and HCl). All experiments were conducted at room temperature. […]

[2] = target: T2, THIK-1 S109A (Homo sapiens, UniProt Q9HB14, S109A); assay: Inside-out excised patch recordings, oocytes, THIK-1 S109A mutant (lipid activation); conditions: read-out: Linoleic acid EC50
T2 construct: expressed in transfected cells; host or cells: Xenopus oocytes (mRNA injection)
T2 sequence (Q9HB14 whole entry S109A): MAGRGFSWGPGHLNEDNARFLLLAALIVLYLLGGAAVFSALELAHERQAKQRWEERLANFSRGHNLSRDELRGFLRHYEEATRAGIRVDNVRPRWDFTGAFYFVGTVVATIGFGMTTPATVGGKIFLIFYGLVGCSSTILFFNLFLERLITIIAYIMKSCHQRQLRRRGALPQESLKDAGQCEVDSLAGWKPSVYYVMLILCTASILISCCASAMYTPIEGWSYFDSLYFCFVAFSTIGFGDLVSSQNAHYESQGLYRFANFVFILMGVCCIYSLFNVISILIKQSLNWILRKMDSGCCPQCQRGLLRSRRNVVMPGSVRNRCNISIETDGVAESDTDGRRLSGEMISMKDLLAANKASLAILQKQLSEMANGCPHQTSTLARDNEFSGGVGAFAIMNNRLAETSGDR
Source text: Supplement 41594_2025_1497_MOESM2_ESM.xlsx, sheet "ExtData_Fig_S5f" | column: Linoleic acid EC50 (µM); S109A

[3] = target: T3, THIK-1 Y102A (Homo sapiens, UniProt Q9HB14, Y102A); assay: Inside-out excised patch recordings, oocytes, THIK-1 Y102A mutant (lipid activation); conditions: read-out: Linoleic acid EC50
T3 construct: expressed in transfected cells; host or cells: Xenopus oocytes (mRNA injection)
T3 sequence (Q9HB14 whole entry Y102A): as the sequence (Q9HB14 whole entry S109A) above, with Y102A, A109S counted along it
Source text: Supplement 41594_2025_1497_MOESM2_ESM.xlsx, sheet "ExtData_Fig_S5f" | column: Linoleic acid EC50 (µM); Y102A

pEC50 ([1]; individual recordings): 4.28 and 4.41 and 4.43 and 4.22 and 4.35 and 4.04 and 3.94 | pEC50 ([1]; mean): 4.20 | Fold activation with 30.0 µM linoleic acid ([1]; mean): 1.89 | pEC50 ([2]; individual recordings): 4.32 and 4.34 and 4.12 and 4.68 and 4.44 and 4.29 and 3.89 | pEC50 ([2]; mean): 4.25 | pEC50 ([3]; individual recordings): 3.98 and 3.88 and 4.24 and 4.22 and 3.53 and 4.33 and 4.31 and 4.44 | pEC50 ([3]; mean): 4.03
SMILES: CCCCC/C=C\C/C=C\CCCCCCCC(=O)O [linoleic acid]
Fold activation with 30.0 µM linoleic acid ([1]; individual recordings): 1.900 and 2.280 and 2.410 and 2.160 and 1.740 and 1.840 and 1.500 and 1.630 and 1.510

From publication PMC12263422, “Cryo-EM structure of the human THIK-1 K2P K^+ channel reveals a lower Y gate regulated by lipids and anesthetics” (Nature Structural & Molecular Biology, 2025)
